Among the data in PubChem BioAssay (NCI) are TGI and GI50 values, retold here.

Test systems include SW-620 colon; A549 NSCLC; COLO 205 colon; HCC-2998 colon; SN12C renal; NCI-H23 lung; LOX IMVI melanoma; DU-145 prostate; T-47D breast; MCF7 breast.
Experiment in all cases: NCI-60 cell line screen, 48 h

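Compound exposure: 48 hours, 5 concentrations, 96-well plates. GI50 is the concentration that inhibits growth by half. TGI: total growth inhibition.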

As to `CN(C)C(=S)/N=c1\ss/c(=N\S(=O)(=O)c2ccccc2)n1N(C)C`, the TGI with SW-620 colon, in the experiment on A549 NSCLC, in the experiment with COLO 205 colon, in the experiment with HCC-2998 colon and in the experiment on SN12C renal was over 100 µM each time.

Consider `COC1OC2COC(c3ccccc3)OC2C(O)C1Br` (centres undefined), for which the TGI in the experiment with NCI-H23 lung, in the experiment with SW-620 colon, in the experiment on A549 NSCLC, with COLO 205 colon, in the experiment with LOX IMVI melanoma and in the experiment with HCC-2998 colon was over 100 µM throughout. The compound further came in with a TGI with SN12C renal of over 100 µM.

As for `COc1ccc2nc(NC(=O)C(=O)C(C#N)c3ccc(Cl)c(Cl)c3)sc2c1` (centres undefined), the TGI in the experiment with NCI-H23 lung, with SW-620 colon, in the experiment on A549 NSCLC, in the experiment on COLO 205 colon, in the experiment on LOX IMVI melanoma and in the experiment on SN12C renal was over 100 µM in each case.

As to `O=C(O)CCSC(=O)Nc1ccc(N=Nc2ccccc2)cc1`, the TGI in the experiment with NCI-H23 lung, with SW-620 colon, with A549 NSCLC, in the experiment on COLO 205 colon, in the experiment on LOX IMVI melanoma and in the experiment on HCC-2998 colon was over 100 µM in each case. In the experiment with SN12C renal, this compound had a TGI of over 100 µM.

`ClCc1ccc(Cn2cnc3c(Cl)nc(Cl)nc32)cc1`: the GI50 was 7.62 µM in the experiment with NCI-H23 lung; 3.79 µM with SW-620 colon; 18.6 µM with A549 NSCLC; 5.69 µM in the experiment on DU-145 prostate; 3.45 µM in the experiment on COLO 205 colon; 2.06 µM in the experiment with LOX IMVI melanoma. The figures for the GI50 in the experiment with HCC-2998 colon, in the experiment on SN12C renal and in the experiment on T-47D breast were 10.3 µM, 7.18 µM and 2.18 µM, respectively. Further, the TGI is 23.2 µM in the experiment on NCI-H23 lung; 17.3 µM with SW-620 colon; 37.1 µM in the experiment on A549 NSCLC; 17.8 µM in the experiment with DU-145 prostate; over 100 µM in the experiment with COLO 205 colon; 4.13 µM in the experiment with LOX IMVI melanoma. In addition, the TGI came to 24 µM in the experiment on HCC-2998 colon, 20.8 µM in the experiment on SN12C renal and 5.44 µM in the experiment with T-47D breast.

In the case of `CC12Oc3ccc4ccccc4c3CC1Cc1c(ccc3ccccc13)O2` (centres undefined), the TGI with NCI-H23 lung, in the experiment with SW-620 colon, in the experiment with A549 NSCLC, with COLO 205 colon, in the experiment on LOX IMVI melanoma and in the experiment with HCC-2998 colon was over 100 µM in each case.

With `Cc1cccc(C(C)(C)C)c1NC(=O)CC1Sc2ccccc2NC1=O` (centres undefined), the TGI is over 100 µM in the experiment with NCI-H23 lung; 32.6 µM in the experiment with SW-620 colon; over 100 µM with A549 NSCLC; 59.7 µM in the experiment on COLO 205 colon; over 100 µM in the experiment on HCC-2998 colon; over 100 µM in the experiment on SN12C renal.

Regarding `Nc1n[nH]c(CCc2nc(N)n[nH]2)n1`, the TGI in the experiment with NCI-H23 lung, with SW-620 colon, with A549 NSCLC, with COLO 205 colon, in the experiment on LOX IMVI melanoma and with HCC-2998 colon was over 100 µM in each case. The compound also registered a TGI in the experiment with SN12C renal of over 100 µM.

On to `O=C1C=CC(CC(=O)c2ccc3ccccc3c2)O1` (centres undefined), for which the TGI is 46.7 µM in the experiment on NCI-H23 lung; 49.5 µM with SW-620 colon; over 100 µM in the experiment with A549 NSCLC; 31.9 µM in the experiment with COLO 205 colon; 35.8 µM with LOX IMVI melanoma; 31.1 µM with HCC-2998 colon. The TGI with SN12C renal came to 36 µM.

For the compound `Nn1c(N=Nc2c(O)[nH]c3c(Cl)cc(Cl)cc23)n[nH]c1=S`, the TGI in the experiment on NCI-H23 lung, in the experiment with SW-620 colon, in the experiment with A549 NSCLC, in the experiment with COLO 205 colon, in the experiment with LOX IMVI melanoma and in the experiment on HCC-2998 colon was over 100 µM each time. In addition, the TGI in the experiment with SN12C renal is over 100 µM.

In the case of `CC1=CC(=O)N(c2c(C)cccc2Cl)C(C)N1` (centres undefined), the TGI in the experiment on NCI-H23 lung, in the experiment with SW-620 colon, in the experiment with A549 NSCLC, in the experiment with COLO 205 colon, in the experiment on LOX IMVI melanoma and in the experiment on HCC-2998 colon was over 100 µM each time. Besides, the TGI in the experiment on SN12C renal was over 100 µM.

With `O=C(O)C1=C(C(=O)Nc2ccc(NC(=O)C3=C(C(=O)O)C4C=CC3C4)cc2)C2C=CC1C2`, the TGI with NCI-H23 lung, in the experiment on SW-620 colon, in the experiment on A549 NSCLC, in the experiment on COLO 205 colon, in the experiment on LOX IMVI melanoma and with HCC-2998 colon was over 100 µM throughout. This compound had a TGI in the experiment on SN12C renal of over 100 µM.

As to `O=C(O)c1ccccc1NC(=O)C1CCCCC1`, the TGI in the experiment on SW-620 colon, with A549 NSCLC, with COLO 205 colon, in the experiment with LOX IMVI melanoma, in the experiment with HCC-2998 colon and in the experiment with SN12C renal was over 100 µM throughout.

As to `O=C1C2Nc3ccccc3SC2C(=O)N1c1ccccc1C(F)(F)F` (centres undefined), the TGI in the experiment on NCI-H23 lung was 60.3 µM; in the experiment with SW-620 colon, over 100 µM; with A549 NSCLC, over 100 µM; with LOX IMVI melanoma, over 100 µM; with HCC-2998 colon, 35.7 µM; with SN12C renal it was 78.2 µM.

Regarding `O=C(O)/C=C/C(=O)N1C/C(=C\c2ccccc2)C(=O)/C(=C/c2ccccc2)C1`, the TGI in the experiment on NCI-H23 lung was 23.9 µM; in the experiment with SW-620 colon, 6.09 µM; in the experiment with A549 NSCLC, 52 µM; in the experiment with COLO 205 colon it was 24.3 µM; in the experiment with LOX IMVI melanoma it was 10.5 µM; in the experiment on HCC-2998 colon, 13.1 µM. In addition, the TGI amounted to 15.5 µM in the experiment on SN12C renal and 18.3 µM in the experiment on MCF7 breast.

As to `N#CC1=C(Cl)NC(Cl)=C(C#N)C1c1c(Cl)cccc1Cl`, the TGI with NCI-H23 lung is over 100 µM; in the experiment on SW-620 colon it was 27 µM; in the experiment on A549 NSCLC, 83.6 µM; in the experiment on COLO 205 colon, 32.8 µM; in the experiment with LOX IMVI melanoma, 31 µM; in the experiment with HCC-2998 colon, 47 µM. Besides, in the experiment with SN12C renal, the TGI came out at 79.5 µM.

Regarding `c1ccc2c(c1)C1=NCCN1c1ccccc1-2`, the TGI with NCI-H23 lung is 6.65 µM; with SW-620 colon, 11.6 µM; in the experiment with A549 NSCLC, 27.1 µM; in the experiment on COLO 205 colon, 2.77 µM; in the experiment on LOX IMVI melanoma, 10.4 µM; with HCC-2998 colon, 18.8 µM. The TGI in the experiment on SN12C renal came to 9.92 µM.

On to `O=C(Nc1ccn(CCI)c(=O)n1)c1ccccc1`, for which the TGI in the experiment on SW-620 colon, with A549 NSCLC, in the experiment with COLO 205 colon, in the experiment on LOX IMVI melanoma and in the experiment with SN12C renal was over 100 µM in each case.
